For the first experiment, the system named is HBsAg. Description: HBsAg assay (CLIA on supernatant of HepG2.2.15 cells). Format: cell-based, HBV. The settings on record: Hepatitis B virus, HepG2.2.15, read-out: IC50 in HBsAg assay, HepG2.2.15 cells; HBsAg secretion reduced by 50% compared to the no drug control. How it is done: HepG2.2.15 cells (Acs et al. Proc Natl Acad Sci USA, 84, (1987), 4641-4), a constitutively HBV-expressing cell line were cultured in DMEM+Glutamax-I medium (Invitrogen, Carlsbad, Calif., USA), supplemented with 10% fetal bovine serum (Invitrogen) and G418 (Invitrogen) at a final concentration of 200 mg/L and maintained in 5% CO2 at 37° C.
HepG2.2.15 cells were seeded in duplicate into white, 96-well plates at 1.5×10^4 cells/well. The cells were treated with a three-fold serial dilution series of the compounds in DMSO. The final DMSO concentration in all wells was 1% and DMSO was used as no drug control.
The HBsAg chemiluminescence immunoassay (CLIA) kit (Autobio Diagnostics Co., Zhengzhou, China, Catalog number: CL0310-2) was used to measure the levels of secreted HBV antigens semi-quantitatively. For the detection 50 μL/well culture supernatant was used and HBsAg was quantified using HBsAg chemiluminescence immunoassay (CLIA) kit (Autobio Diagnostics Co., Zhengzhou, China, Catalog number: CL0310-2), 50 μL of the supernatant was transferred to the CLIA assay plate and 50 μL of enzyme conjugate reagent was added into each well. The plates were sealed and gently agitated for 1 hour at room temperature. The supernatant-enzyme-mixture was discarded and wells were washed 6 times with 300 μL of PBS. The residual liquid was removed by plating the CLIA plate right side down on absorbent tissue paper. 25 μL of substrates A and B were added to each well. Luminance was measured using a luminometer (Mithras LB 940 Multimode Microplate Reader) after 10 minutes incubation. Dose-response curves were generated and the IC50 value was extrapolated by using the E-WorkBook Suite (ID Business Solutions Ltd., Guildford, UK). The IC50 was defined as the compound concentration at which HBsAg secretion was reduced by 50% compared to the no drug control.
The compounds according to formula I were tested for their capacity to inhibit HBsAg as described herein.
A word on the IC50: it is the midpoint of a concentration-inhibition curve. Turning to `c1cnc(-c2ncc(N3CCc4ccc(C5CC5)cc4C3)cn2)nc1` [Example 15, 7-Cyclopropyl-2-(2-pyrimidin-2-ylpyrimidin-5-yl)-3,4-dihydro-1H-isoquinoline], the IC50 worked out at 1690 nM.
Take `COc1cc2c(cn1)CCN(c1cnc(-c3ncccn3)nc1)C2` [Example 13, 7-Methoxy-2-(2-pyrimidin-2-ylpyrimidin-5-yl)-3,4-dihydro-1H-2,6-naphthyridine]: the IC50 is 3700 nM.
Take `Fc1cc(OCC(F)F)cc2c1CCN(c1cnc(-c3ncccn3)nc1)C2` [Example 19, 7-(2,2-Difluoroethoxy)-5-fluoro-2-(2-pyrimidin-2-ylpyrimidin-5-yl)-3,4-dihydro-1H-isoquinoline]: the concentration for half-maximal inhibition (IC50) came to 255 nM.
The same measure, in the same setting: the figure for `Cc1ccc2c(c1)CN(c1cnc(-c3ncccn3)nc1)CC2` [Example 17, 7-Methyl-2-(2-pyrimidin-2-ylpyrimidin-5-yl)-3,4-dihydro-1H-isoquinoline] is 2010 nM; for `Clc1ccc2c(c1)CN(c1cnc(-c3ncccn3)nc1)CC2` [Example 22, 7-Chloro-2-(2-pyrimidin-2-ylpyrimidin-5-yl)-3,4-dihydro-1H-isoquinoline] it is 2040 nM; for `Clc1ccc2c(c1)CCN(c1cnc(-c3ncccn3)nc1)C2` [Example 9, 6-Chloro-2-(2-pyrimidin-2-ylpyrimidin-5-yl)-3,4-dihydro-1H-isoquinoline] it is 2520 nM.
As to `COc1cc2c(cc1OC)CN(c1cnc(-c3ncccn3)nc1)CC2` [Example 3, 6,7-Dimethoxy-2-(2-pyrimidin-2-ylpyrimidin-5-yl)-3,4-dihydro-1H-isoquinoline], the concentration for half-maximal inhibition (IC50) is 2320 nM.
Same read-out and setting: the value for `COc1cc2c(cc1OC)CN(c1ccc(-c3ccccn3)nc1)CC2` [Example 10, 6,7-Dimethoxy-2-[6-(2-pyridyl)-3-pyridyl]-3,4-dihydro-1H-isoquinoline] was 3120 nM; that for `Fc1cccc2c1CCN(c1cnc(-c3ncccn3)nc1)C2` [Example 27, 5-Fluoro-2-(2-pyrimidin-2-ylpyrimidin-5-yl)-3,4-dihydro-1H-isoquinoline] was 3030 nM.
In the case of `COc1ccc2c(c1)CN(c1cnc(-c3ncccn3)nc1)CC2` [Example 14, 7-Methoxy-2-(2-pyrimidin-2-ylpyrimidin-5-yl)-3,4-dihydro-1H-isoquinoline], the IC50 was determined as 990 nM.
For the compound `c1cnc(-c2ncc(N3CCc4c(cccc4C4CC4)C3)cn2)nc1` [Example 29, 5-Cyclopropyl-2-(2-pyrimidin-2-ylpyrimidin-5-yl)-3,4-dihydro-1H-isoquinoline], the concentration for half-maximal inhibition (IC50) is 6890 nM.
On to `CCC1c2cc(OC)cc(F)c2CCN1c1cnc(-c2ncccn2)nc1` (centres unmarked) [Example 33, Ethyl-5-fluoro-7-methoxy-2-(2-pyrimidin-2-ylpyrimidin-5-yl)-3,4-dihydro-1H-isoquinoline], for which the IC50 amounted to 790 nM.
As to `CN(C)c1ccc2c(c1)CN(c1cnc(-c3ncccn3)nc1)CC2` [Example 16, N,N-Dimethyl-2-(2-pyrimidin-2-ylpyrimidin-5-yl)-3,4-dihydro-1H-isoquinolin-7-amine], the IC50 was found to be 406 nM.
`N#Cc1cccc2c1CCN(c1cnc(-c3ncccn3)nc1)C2` [Example 25, 2-(2-Pyrimidin-2-ylpyrimidin-5-yl)-3,4-dihydro-1H-isoquinoline-5-carbonitrile]: the IC50 worked out at 1190 nM.
Still for that read-out and setting: the figure for `NC(=O)COc1cc(F)c2c(c1)CN(c1cnc(-c3ncccn3)nc1)CC2` [Example 28, 2-[[5-Fluoro-2-(2-pyrimidin-2-ylpyrimidin-5-yl)-3,4-dihydro-1H-isoquinolin-7-yl]oxy]acetamide] is 8520 nM; for `c1cnc(-c2ncc(N3CCc4cc(C5CC5)ccc4C3)cn2)nc1` [Example 24, 6-Cyclopropyl-2-(2-pyrimidin-2-ylpyrimidin-5-yl)-3,4-dihydro-1H-isoquinoline] it is 1380 nM.
For the compound `COc1cc(F)c2c(c1)C(C)N(c1cnc(-c3ncccn3)nc1)CC2` (centres unmarked) [Example 7, 5-Fluoro-7-methoxy-1-methyl-2-(2-pyrimidin-2-ylpyrimidin-5-yl)-3,4-dihydro-1H-isoquinoline], the IC50 was determined as 315 nM.
With `COc1cc(Cl)cc2c1CCN(c1cnc(-c3ncccn3)nc1)C2` [Example 32, 7-Chloro-5-methoxy-2-(2-pyrimidin-2-ylpyrimidin-5-yl)-3,4-dihydro-1H-isoquinoline], the concentration for half-maximal inhibition (IC50) was 251 nM.
In the case of `COc1ccc2c(n1)CN(c1cnc(-c3ncccn3)nc1)CC2` [Example 12, 2-Methoxy-7-(2-pyrimidin-2-ylpyrimidin-5-yl)-6,8-dihydro-5H-1,7-naphthyridine], the IC50 came out at 5770 nM.
Consider `CN(C)c1cccc2c1CCN(c1cnc(-c3ncccn3)nc1)C2` [Example 30, N,N-Dimethyl-2-(2-pyrimidin-2-ylpyrimidin-5-yl)-3,4-dihydro-1H-isoquinolin-5-amine], for which the half-inhibitory concentration (IC50) turned out to be 43300 nM.
Same read-out and setting: the figure for `COc1cc(Cl)c2c(c1)CN(c1cnc(-c3ncccn3)nc1)CC2` [Example 31, 5-Chloro-7-methoxy-2-(2-pyrimidin-2-ylpyrimidin-5-yl)-3,4-dihydro-1H-isoquinoline] is 68 nM.
Same read-out and setting: the value for `COC1CN(c2ccc3c(c2)CN(c2cnc(-c4ncccn4)nc2)CC3)C1` [Example 26, 7-(3-Methoxyazetidin-1-yl)-2-(2-pyrimidin-2-ylpyrimidin-5-yl)-3,4-dihydro-1H-isoquinoline] was 1410 nM; that for `COc1cc(F)cc2c1CCN(c1cnc(-c3ncccn3)nc1)C2` [Example 6, 7-Fluoro-5-methoxy-2-(2-pyrimidin-2-ylpyrimidin-5-yl)-3,4-dihydro-1H-isoquinoline] was 454 nM.
Turning to `c1cnc(-c2ncc(N3CCc4ccccc4C3)cn2)nc1` [Example 1, 2-(2-Pyrimidin-2-ylpyrimidin-5-yl)-3,4-dihydro-1H-isoquinoline], the IC50 worked out at 3170 nM.
With `COc1ccc2c(c1)CCN(c1cnc(-c3ncccn3)nc1)C2` [Example 4, 6-Methoxy-2-(2-pyrimidin-2-ylpyrimidin-5-yl)-3,4-dihydro-1H-isoquinoline], the IC50 came to 5200 nM.
Same read-out and setting: the value for `N#Cc1ccc2c(c1)CN(c1cnc(-c3ncccn3)nc1)CC2` [Example 20, 2-(2-Pyrimidin-2-ylpyrimidin-5-yl)-3,4-dihydro-1H-isoquinoline-7-carbonitrile] was 8640 nM.
For `COc1cc(F)c2c(c1)CN(c1cnc(-c3ncccn3)nc1)CC2` [Example 5, 5-Fluoro-7-methoxy-2-(2-pyrimidin-2-ylpyrimidin-5-yl)-3,4-dihydro-1H-isoquinoline], the IC50 came to 355 nM.
As to `Fc1cc(OCC2CC2)cc2c1CCN(c1cnc(-c3ncccn3)nc1)C2` [Example 21, 7-(Cyclopropylmethoxy)-5-fluoro-2-(2-pyrimidin-2-ylpyrimidin-5-yl)-3,4-dihydro-1H-isoquinoline], the half-inhibitory concentration (IC50) is 244 nM.
For `CNc1ccc2c(c1)CN(c1cnc(-c3ncccn3)nc1)CC2` [Example 18, N-Methyl-2-(2-pyrimidin-2-ylpyrimidin-5-yl)-3,4-dihydro-1H-isoquinolin-7-amine], the half-inhibitory concentration (IC50) stood at 4640 nM.
In the case of `CN(C)c1ccc2c(c1)CCN(c1cnc(-c3ncccn3)nc1)C2` [Example 23, N,N-Dimethyl-2-(2-pyrimidin-2-ylpyrimidin-5-yl)-3,4-dihydro-1H-isoquinolin-6-amine], the half-maximal inhibitory concentration (IC50) was found to be 2220 nM.

The same experiment, now with this note: read-out: IC50 in HBsAg assay; HepG2.2.15 cells; HBsAg secretion reduced by 50% compared to the no drug control.
Consider `Fc1ccc2c(c1)CN(c1cnc(-c3ncccn3)nc1)CC2` [Example 11, 7-Fluoro-2-(2-pyrimidin-2-ylpyrimidin-5-yl)-3,4-dihydro-1H-isoquinoline], for which the IC50 came to 3890 nM.
Regarding `Fc1ccc2c(c1)CN(c1cnc(-c3ncccn3)nc1)CC2` [Example 2, 7-Fluoro-2-(2-pyrimidin-2-ylpyrimidin-5-yl)-3,4-dihydro-1H-isoquinoline], the concentration for half-maximal inhibition (IC50) is 22500 nM.

For the origin of these results see patent publication US11124495B2, “Tetrahydroisoquinolines and terahydronaphthyridines for the treatment of hepatitis B virus infection” (Hoffmann-La Roche Inc., priority 2016, dated 2021).
